Data on four compounds can be found in US9250232B2, “Fluorescent probe” (THE UNIVERSITY OF TOKYO, priority 2012, dated 2016).

Series [1] in a line: Optical characteristics (absorption and fluorescence maxima, quantum yield) in 0.1 M phosphate buffer with 1% DMSO. The class given is physicochemical. As to conditions: for λmax,fl (nm) / Φfl (fluorescence quantum yield): 0.1 M phosphate buffer (pH 9); for Φfl (fluorescence quantum yield): standard 2-Me TM (0.42); for λmax,abs (nm) pH 9: pH 9, 0.1 M phosphate buffer.
Method: (§1) The measurement was performed in a 0.1 M phosphate buffer (pH 9) containing 1% dimethyl sulfoxide (DMSO). pKa was obtained from the absorbance meaured in a phosphate buffer (pH 9) by single-phase or two-phase curve fitting.
For series [2] the following is noted: 2-Me TokyoMagenta in 0.1 M phosphate buffer (pH 9); compound of WO2012/099218; cited from earlier work.
Series [3] is described as follows: pKa from absorbance in phosphate buffer by single-phase or two-phase curve fitting. As to conditions: single value given.
Method: as §1
Series [4] can be described thus: Optical characteristics of diCl-2-COOH TM-monoβGal in 0.1 M phosphate buffer. It is filed as physicochemical. Here is the method: The quantum yield was calculated by using the quantum yield (0.85) of fluorescein in 0.1M aqueous sodium hydroxide as the standard.
The nature of series [5]: Estimate of open-ring ratio by comparison with the absorption spectrum of TM-βGal. It is filed as physicochemical. As to conditions: pH of physiological conditions; 10 μM in 0.1 M sodium phosphate buffer, 1.0% DMSO; versus TM-βGal. Here is the method: In order to estimate the open-ring ratio of diCl-2-COOH TM-monoβGal, comparison with the absorption spectrum of TM-βGal was performed. […] The measurement was performed by using 10 μM diCl-2-COOH TM-monoβGal in a 0.1 M sodium phosphate buffer of various pH values containing 1.0% DMSO. The excitation wavelength was 450 nm for TMβGal (compound described in International Patent Publication WO2012/099218), or 460 nm for diCl-2-COOH TM-monoβGal.

Another series relates to HEK293 cells. Briefly: Imaging of β-galactosidase in live HEK293 cells (lacZ+ / lacZ−), intracellular uptake. As to conditions: 10 μM, 37° C., 30 minutes, DMEM with 0.1% DMSO, confocal microscope. The class given is cell-based. As to the method: For the HEK293 cells in which the lacZ gene encoding β-galactosidase was stably expressed (lacZ+), and the HEK293 cells into which the lacZ gene was not introduced (lacZ−) as a control, β-galactosidase in the cells was measured by using diCl-2-COOH TM-monoβGal or diCl-2-COOH TM-diβGal. The HEK293 cells (lacZ−) were incubated at 37° C. for 30 minutes in the Dulbecco's Modified Eagle's medium (DMEM) containing 0.1% DMSO together with 10 μM diCl-2-COOH TM-monoβGal or diCl-2-COOH TM-diβGal. […] The results are shown in FIG. 19 (diCl-2-COOH TM-monoβGal) and FIG. 20 (diCl-2COOHTM-diβGal).

Method for physchem: as §1

On to `C[Si]1(C)C2=C(Cl)C(=O)C=CC2=C(c2ccccc2C(=O)O)c2ccc(O)c(Cl)c21` [2-COOH DCTM, 4′,5′-Dichloro-2-COOH TokyoMagenta], for which, in series [1], the “λmax,fl (nm)” value is 607 nm, the “Φfl (fluorescence quantum yield)” value turned out to be 0.48 and the “λmax,abs (nm) pH 9” value was found to be 591 nm.
Usually pKa stands for the negative logarithm of the acid dissociation constant. On to `Cc1ccccc1C1=C2C=CC(=O)C=C2[Si](C)(C)c2cc(O)ccc21` [2-Me TM, 2-Me TokyoMagenta], for which, in series [1], the “λmax,fl (nm)” value amounted to 598 nm and the “λmax,abs (nm) pH 9” value stood at 582 nm. Besides, in series [1] (pH 3, 0.1 M phosphate buffer), the “λmax,abs (nm) pH 3” value is 472 nm. Moreover, in series [2], the “Φfl (quantum yield used as the standard)” value was 0.42. In series [3], this compound yielded a pKa of 6.8.
Take `C[Si]1(C)C2=C(Cl)C(=O)C=CC2=C(c2ccccc2C(=O)O)c2ccc(O[C@@H]3O[C@H](CO)[C@H](O)[C@H](O)[C@H]3O)c(Cl)c21` [diCl-2-COOH TM-monoβGal, 4′,5′-Dichloro-2-COOH TokyoMagenta mono-β-D-galactopyranoside]: in series [4], the “Absorption λmax [nm]” value was 460 nm and the “Fluorescence λmax [nm]” value came out at 555 nm. The “Extinction Coefficient ε [M^−1cm^−1]” value in series [4] (pH 7.4) is on record as 1,200 (pH 7.4) M^−1cm^−1. In series [4] (pH 7.4, standard fluorescein (0.85)), the “Quantum yield Φfl” value is on record as 0.09 (pH 7.4). In addition, the “Part having the ring-closed structure, which does not show absorption” value in series [5] is recorded as “more than 95%”. The “Intracellular uptaking amount compared with diCl-2-COOH TM-diβGal” value in the series on HEK293 cells is “larger”.
Regarding `C[Si]1(C)C2=CC(=O)C=CC2=C(c2ccccc2C(=O)O)c2ccc(O)cc21` [2-COOH TM], in series [1], the “λmax,fl (nm)” value is listed as 598 nm, the “Φfl (fluorescence quantum yield)” value turned out to be 0.38 and the “λmax,abs (nm) pH 9” value is recorded as 582 nm. In addition, the pKa in the series “physchem” (pKa (first of two printed values)) is 8.3. Moreover, the pKa in the series “physchem” (pKa (second of two printed values)) was 7.6.
